Reference: the supplement of paper PMC10307832

How the values were obtained:
Test in all cases: relative viability (nuclei count vs DMSO), 5 days (fraction); higher = more cells survive
Dasatinib + Luminespib = compound: Cc1nc(Nc2ncc(C(=O)Nc3c(C)cccc3Cl)s2)cc(N2CCN(CCO)CC2)n1 [Dasatinib] + CCNC(=O)c1noc(-c2cc(C(C)C)c(O)cc2O)c1-c1ccc(CN2CCOCC2)cc1 [Luminespib] (partner 0.01 µM)
Procedure, shortened: (§1)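 Medians of duplicate plates are given as relative viability. That measure is the nuclei count in treated wells divided by the count in vehicle wells. Counts were taken on 4× images of lung cancer cell lines in 1536-well plates, 5 days after pin-tool dosing the day after seeding with one drug alone or a fixed anchor-drug dose plus five library-drug doses (not always all listed) in √10 steps.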

Dasatinib + Vorinostat = compound: Cc1nc(Nc2ncc(C(=O)Nc3c(C)cccc3Cl)s2)cc(N2CCN(CCO)CC2)n1 [Dasatinib] + O=C(CCCCCCC(=O)Nc1ccccc1)NO [Vorinostat] (partner 1 µM)
Procedure, shortened: as §1

ALW-II-49-7 + Alpelisib = compound: Cc1ccc(C(=O)Nc2cccc(C(F)(F)F)c2)cc1Nc1cncc(C(N)=O)c1 [ALW-II-49-7] + Cc1nc(NC(=O)N2CCC[C@H]2C(N)=O)sc1-c1ccnc(C(C)(C)C(F)(F)F)c1 [Alpelisib] (partner 2 µM)
Procedure, shortened: as §1

ALW-II-49-7 + Navitoclax = compound: Cc1ccc(C(=O)Nc2cccc(C(F)(F)F)c2)cc1Nc1cncc(C(N)=O)c1 [ALW-II-49-7] + CC1(C)CCC(c2ccc(Cl)cc2)=C(CN2CCN(c3ccc(C(=O)NS(=O)(=O)c4ccc(N[C@H](CCN5CCOCC5)CSc5ccccc5)c(S(=O)(=O)C(F)(F)F)c4)cc3)CC2)C1 [Navitoclax] (partner 0.5 µM)
Procedure, shortened: as §1

Cell Line	relative viability (Dasatinib + Luminespib; first compound 0.005 µM)	relative viability (Dasatinib + Luminespib; first compound 0.01581 µM)	relative viability (Dasatinib + Luminespib; first compound 0.05 µM)	relative viability (Dasatinib + Luminespib; first compound 0.1581 µM)	relative viability (Dasatinib + Luminespib; first compound 0.5 µM)	relative viability (Dasatinib + Vorinostat; first compound 0.005 µM)	relative viability (Dasatinib + Vorinostat; first compound 0.01581 µM)	relative viability (Dasatinib + Vorinostat; first compound 0.05 µM)	relative viability (Dasatinib + Vorinostat; first compound 0.1581 µM)	relative viability (Dasatinib + Vorinostat; first compound 0.5 µM)	relative viability (ALW-II-49-7 + Alpelisib; first compound 0.08 µM)	relative viability (ALW-II-49-7 + Alpelisib; first compound 0.253 µM)	relative viability (ALW-II-49-7 + Alpelisib; first compound 0.8 µM)	relative viability (ALW-II-49-7 + Alpelisib; first compound 2.53 µM)	relative viability (ALW-II-49-7 + Alpelisib; first compound 8 µM)	relative viability (ALW-II-49-7 + Navitoclax; first compound 0.08 µM)	relative viability (ALW-II-49-7 + Navitoclax; first compound 0.253 µM)	relative viability (ALW-II-49-7 + Navitoclax; first compound 0.8 µM)	relative viability (ALW-II-49-7 + Navitoclax; first compound 2.53 µM)	relative viability (ALW-II-49-7 + Navitoclax; first compound 8 µM)
NCI-H1623	0.414	0.401	0.49	0.412	0.319															
HCC-827	0.672	0.409	0.335	0.127	0.123	0.787	0.744	0.742	0.615	0.157	0.949	1.08	0.945	0.94	0.897	0.981	1.05	1.08	1.01	0.987
NCI-H322M	0.779	0.491	0.38	0.288	0.232	0.668	0.535	0.426	0.311	0.258	0.724	0.739	0.957	0.759	0.8	1.22	1.31	1.24	1.26	1.09
ChaGo-K-1	0.555	0.543	0.591	0.486	0.366	0.735	0.737	0.704	0.565	0.47						0.931	1.45	1.27	1.29	0.753
BEN	0.439	0.547	0.266	0.2	0.269	0.577	0.445	0.417	0.371	0.368	0.993	0.93	0.936		1.17	0.111	0.0965	0.0694		0.0797
NCI-H2347	0.404	0.359	0.266	0.23	0.276	0.422	0.298	0.363	0.263	0.238	1.08	0.98	0.986	0.869	0.873	0.899	0.807	0.721	0.44	0.685
LOU-NH91	0.348	0.348	0.285	0.259	0.27	0.822	0.846	0.687	0.583	0.429	0.648	0.72	0.729	0.388	0.797	0.642	0.733	0.623	0.345	0.604
NCI-H2228	0.158	0.095	0.145	0.0907	0.101	0.618	0.564	0.333	0.387	0.388	0.647	0.649	0.866	0.75	0.769	1.4	0.809	0.628	0.838	0.84
NCI-H2342	0.769	0.548	0.439	0.437	0.281	0.734	0.654	0.603	0.458	0.339										
HCC-366						0.377	0.225	0.312	0.238	0.22	0.392	0.605	0.417	0.356	0.579	1.04	1.29	1.08	1.11	1.11
NCI-H2405	0.501	0.309	0.309	0.247	0.142	0.838	0.597	0.427	0.188	0.227	0.741	0.829	0.743	0.248	0.753	0.761	0.974	0.779	0.241	0.735
Calu-6											1.04	0.984	0.95	0.91	0.791	0.814	0.84	0.731	0.591	0.636
201T	0.998	0.81	0.836	0.548	0.378	0.912	0.723	0.792	0.649	0.346	1	1.02	1.02	0.992	1.02	1.18	1.22	1.21	1.27	1.23
CAL-12T	0.794	0.374	0.334	0.129	0.072	1.02	0.846	0.708	0.477	0.225	1.26	1.14	1.2	1.21	1.26	1.15	1.08	1.2	1.42	1.17
HCC-44	1.15	1.01	0.733	0.604	0.453	1.26	1.03	1.32	1.16	0.867	0.796	0.854	0.887	0.752	0.592	1.12	0.958	0.988	0.891	1.06
NCI-H358	0.215	0.169	0.253	0.262	0.136	0.513	0.47	0.388	0.15	0.128	0.718	0.802	0.925	0.965	0.902					
SW 900	0.141	0.154	0.159	0.111	0.103	0.356	0.282	0.289	0.163	0.192										
NCI-H2087	0.211	0.133	0.152	0.148	0.149	0.954	0.494	0.778	0.714	0.156	1.26	1.1	1.09	0.973	0.996	1.12	0.937	0.838	0.907	0.949
COR-L 105	0.67	0.588	0.637	0.571	0.22	0.891	0.58	0.683	0.445	0.363	1.14	1.03	0.894	0.93	0.943	0.812	0.669	0.767	0.721	0.655
